This passage reports GI50 results from US20250368635A1, “HETEROARYL DERIVATIVE COMPOUND, AND USES THEREOF” (VORONOI, INC., priority 2022, published 2025).

The structures appear in SMILES notation.

The term GI50 denotes the concentration giving 50% growth inhibition.

This test deals with Ba/F3 cells expressing EGFR Del19/C797S (EGFR DC). Put plainly: Inhibition of proliferation of Ba/F3 cells expressing EGFR Del19/C797S (CellTiter-Glo, 72 h). In kind it is cell-based. Conditions: Mus musculus, BaF3, 72 hours treatment. The protocol:
The following experiment was performed to evaluate the inhibitory activity of the compounds according to the present invention on the proliferation of Ba/F3 cells expressing EGFR Del19/C797S (EGFR DC) and EGFR L858R/C797S (EGFR LC) mutations.
Ba/F3 cells were cultured using medium (RPMI-1640) containing 10% fetal bovine serum (FBS) and 5 ng/ml IL-3 (R&D Systems). The transduced Ba/F3 cells were cultured by adding 1 μg/ml puromycin (Invitrogen) to the same medium.
24 hours prior to treatment with compounds, 3,000 to 5,000 cells were seeded on a well plate (white clear bottom 96 well plate, Corning). The compounds were diluted in dimethyl sulfoxide (3-fold dilution, total of 12 concentrations) and injected at 1 μl each so that the final concentration was 0.2 nM to 5 μM. After 72 hours post treatment with compounds, living cells were stored at room temperature for 10 minutes using CellTiter-Glo luminescent cell-viability reagent (Promega), and the luminescence intensity thereof was measured using a reader (Synergy Neo, Biotek). Each test was repeated three times. The result values were calculated as a cell growth rate (%) compared to the control group. A graph was created using the GraphPad Prism version 8.3.0 program, and GI50 values were calculated.
A general note: In ATP-based viability assays light output follows the ATP content of the culture.
In the case of `COc1cc(N2CCN(C)CC2)c(-c2ccoc2)cc1Nc1cc(N2OCC[C@@H]2c2cccc(F)c2F)ncn1` [Example 75, (R)-6-(3-(2,3-difluorophenyl)isoxazolidin-2-yl)-N-(5-(furan-3-yl)-2-methoxy-4-(4-methylpiperazin-1-yl)phenyl)pyrimidin-4-amine], the GI50 was 100 to 1000 nM.
`COc1cc(N2CCC3(CC2)CCN(C(C)(C)CF)CC3)c(-c2cn(C)nc2F)cc1Nc1cc(N2OCC[C@@H]2c2ccccc2)ncn1` [Example 103, (R)-N-(5-(3-fluoro-1-methyl-1H-pyrazol-4-yl)-4-(9-(1-fluoro-2-methylpropan-2-yl)-3,9-diazaspiro[5.5]undecan-3-yl)-2-methoxyphenyl)-6-(3-phenylisoxazolidin-2-yl)pyrimidin-4-amine]: the GI50 was below 100 nM.
Take `COc1cc(N2CCC3(CC2)CCN(C2COC2)CC3)c(-c2cnn(C)c2)cc1Nc1cc(N2OCC[C@@H]2c2cccc(F)c2F)ncn1` [Example 56, (R)-6-(3-(2,3-difluorophenyl)isoxazolidin-2-yl)-N-(2-methoxy-5-(1-methyl-1H-pyrazol-4-yl)-4-(9-(oxetan-3-yl)-3,9-diazaspiro[5.5]undecan-3-yl)phenyl)pyrimidin-4-amine]: the GI50 was below 100 nM.
The same measure for `COc1cc(N2CC3(CCOCC3)C2)c(-c2cnn(C)c2)cc1Nc1cc(N2OCC[C@@H]2c2cccc(F)c2F)ncn1` [Example 111, (R)-6-(3-(2,3-difluorophenyl)isoxazolidin-2-yl)-N-(2-methoxy-5-(1-methyl-1H-pyrazol-4-yl)-4-(7-oxa-2-azaspiro[3.5]nonan-2-yl)phenyl)pyrimidin-4-amine]: 100 to 1000 nM; for `COc1cc(N2CCC(N3CCOC(C(F)(F)F)C3)CC2)c(-c2cnn(C)c2)cc1Nc1cc(N2OCC[C@@H]2c2cccc(F)c2F)ncn1` (stereo partly drawn) [Example 73, 6-((R)-3-(2,3-difluorophenyl)isoxazolidin-2-yl)-N-(2-methoxy-5-(1-methyl-1H-pyrazol-4-yl)-4-(4-(2-(trifluoromethyl)morpholino)piperidin-1-yl)phenyl)pyrimidin-4-amine]: 100 to 1000 nM.
On to `COc1cc(C23CCOCC2C3)c(-c2cnn(C)c2)cc1Nc1cc(N2OCC[C@@H]2c2cccc(F)c2F)ncn1` (stereo partly drawn) [Example 59, N-(4-(3-oxabicyclo[4.1.0]heptan-6-yl)-2-methoxy-5-(1-methyl-1H-pyrazol-4-yl)phenyl)-6-((R)-3-(2,3-difluorophenyl)isoxazolidin-2-yl)pyrimidin-4-amine], for which the GI50 fell in the range of 100 to 1000 nM.
As for `COc1cc(C23CCOCC2C3(F)F)c(-c2cnn(C)c2)cc1Nc1cc(N2OCC[C@@H]2c2cccc(F)c2F)ncn1` (stereo partly drawn) [Example 60, N-(4-(7,7-difluoro-3-oxabicyclo[4.1.0]heptan-6-yl)-2-methoxy-5-(1-methyl-1H-pyrazol-4-yl)phenyl)-6-((R)-3-(2,3-difluorophenyl)isoxazolidin-2-yl)pyrimidin-4-amine], the 50% growth inhibitory concentration (GI50) was 100 to 1000 nM.
The same measure for `COc1cc(N2C[C@@H](C)O[C@@H](C)C2)c(-c2cnn(C)c2)cc1Nc1cc(N2OCC[C@@H]2c2cccc(F)c2F)ncn1` [Example 107, 6-((R)-3-(2,3-difluorophenyl)isoxazolidin-2-yl)-N-(4-((2S,6R)-2,6-dimethylmorpholino)-2-methoxy-5-(1-methyl-1H-pyrazol-4-yl)phenyl)pyrimidin-4-amine]: 100 to 1000 nM; for `COc1cc(N2CCN(C)CC2)c(-c2cnc3ccccc3c2)cc1Nc1cc(N2OCC[C@@H]2c2cccc(F)c2F)ncn1` [Example 78, (R)-6-(3-(2,3-difluorophenyl)isoxazolidin-2-yl)-N-(2-methoxy-4-(4-methylpiperazin-1-yl)-5-(quinolin-3-yl)phenyl)pyrimidin-4-amine]: 100 to 1000 nM; for `COc1cc(N2CCC3(CCOCC3)C2)c(-c2cnn(C)c2)cc1Nc1cc(N2OCC[C@@H]2c2cccc(F)c2F)ncn1` [Example 45, (R)-6-(3-(2,3-difluorophenyl)isoxazolidin-2-yl)-N-(2-methoxy-5-(1-methyl-1H-pyrazol-4-yl)-4-(8-oxa-2-azaspiro[4.5]decan-2-yl)phenyl)pyrimidin-4-amine]: 100 to 1000 nM.
To `COc1cc(N2CCC3CCN(C)C3C2)c(-c2cnn(C)c2)cc1Nc1cc(N2OCC[C@@H]2c2cccc(F)c2F)ncn1` (stereo partly drawn) [Example 62, 6-((R)-3-(2,3-difluorophenyl)isoxazolidin-2-yl)-N-(2-methoxy-5-(1-methyl-1H-pyrazol-4-yl)-4-(1-methyloctahydro-6H-pyrrolo[2,3-c]pyridin-6-yl)phenyl)pyrimidin-4-amine] belongs below 100 nM; to `CC(C)Oc1cc(N2C[C@H](C)O[C@@H](C)C2)c(-c2cnn(C)c2)cc1Nc1cc(N2OCC[C@@H]2c2cccc(F)c2F)ncn1` [Example 105, 6-((R)-3-(2,3-difluorophenyl)isoxazolidin-2-yl)-N--(4-((2S,6S)-2,6-dimethylmorpholino)-2-isopropoxy-5-(1-methyl-1H-pyrazol-4-yl)phenyl)pyrimidin-4-amine], 100 to 1000 nM.
To `COc1cc(N2CC[C@@H](OC)[C@@H](F)C2)c(-c2cnn(C)c2)cc1Nc1cc(N2OCC[C@@H]2c2cccc(F)c2F)ncn1` [Example 66, 6-((R)-3-(2,3-difluorophenyl)isoxazolidin-2-yl)-N-(4-((3,4R)-3-fluoro-4-methoxypiperidin-1-yl)-2-methoxy-5-(1-methyl-1H-pyrazol-4-yl)phenyl)pyrimidin-4-amine] belongs 100 to 1000 nM.
Regarding `COc1cc(N2CCC(N3CC[C@@H](OC)[C@@H](F)C3)CC2)c(-c2cnn(C)c2)cc1Nc1cc(N2OCC[C@@H]2c2cccc(F)c2F)ncn1` [Example 64, 6-((R)-3-(2,3-difluorophenyl)isoxazolidin-2-yl)-N-(4-((3,4R)-3-fluoro-4-methoxy-[1,4′-bipiperidin]-1′-yl)-2-methoxy-5-(1-methyl-1H-pyrazol-4-yl)phenyl)pyrimidin-4-amine], the GI50 fell in the range of 100 to 1000 nM.
On to `COc1cc(N2CCC(N3CCC(F)(F)CC3)CC2)c(-c2cnn(C)c2)cc1Nc1cc(N2OCC[C@@H]2c2cccc(F)c2F)ncn1` [Example 61, (R)-N-(4-(4,4-difluoro-[1,4′-bipiperidin]-1′-yl)-2-methoxy-5-(1-methyl-1H-pyrazol-4-yl)phenyl)-6-(3-(2,3-difluorophenyl)isoxazolidin-2-yl)pyrimidin-4-amine], for which the GI50 was in the range of 100 to 1000 nM.
To `COc1cc(N2CCO[C@H](C)C2)c(-c2cnn(C)c2)cc1Nc1cc(N2OCC[C@@H]2c2cccc(F)c2F)ncn1` [Example 108, 6-((R)-3-(2,3-difluorophenyl)isoxazolidin-2-yl)-N-(2-methoxy-5-(1-methyl-1H-pyrazol-4-yl)-4-((R)-2-methylmorpholino)phenyl)py-rimidin-4-amine] belongs 100 to 1000 nM.
In the case of `COc1cc(N2CCN(C)CC2)c(-c2cnn(C3CC3)c2)cc1Nc1cc(N2OCC[C@@H]2c2cccc(F)c2F)ncn1` [Example 99, (R)-N-(5-(1-cyclopropyl-1H-pyrazol-4-yl)-2-methoxy-4-(4-methylpiperazin-1-yl)phenyl)-6-(3-(2,3-difluorophenyl)isoxazolidin-2-yl)pyrimidin-4-amine], the GI50 is below 100 nM.
Consider `CCOc1cc(N2C[C@@H](C)O[C@@H](C)C2)c(-c2cnn(C)c2)cc1Nc1cc(N2OCC[C@@H]2c2cccc(F)c2F)ncn1` [Example 104, 6-((R)-3-(2,3-difluorophenyl)isoxazolidin-2-yl)-N-(4-((25,6R)-2,6-dimethylmorpholino)-2-ethoxy-5-(1-methyl-1H-pyrazol-4-yl)phenyl)pyrimidin-4-amine], for which the GI50 is 100 to 1000 nM.
